Measurements reported in patent publication US4931462A, “Heterocyclic substituted alkylsulphonamides pharmaceutical compositions containing them, and arterial disease treatment therewith” (Boehringer Mannheim GmbH, priority 1987, dated 1990).

Columns and labels:
[1] = system: thrombocyte aggregation (TX antagonistic effect); assay: TX antagonistic effect: inhibition of U 46619-induced thrombocyte aggregation in platelet-rich plasma of healthy blood donors (Born and Cross); format: cell-based; conditions: Erythrocyte, 5 min; U 46619-induced aggregation, human platelet-rich plasma, citrate, followed over 5 minutes; read-out: Human Erythrocytes IC50
Description: 1. TX Antagonistic Effect of Human Erythrocytes
The thrombocyte aggregation is investigated by the method of Born and Cross (J. Physiol. 168, 178 (1963) in platelet-rich plasma of healthy blood donors. To inhibit clotting, the blood is mixed with 3.2% citrate in a ratio by volume of 1:9.
To induce thrombocyte aggregation, U 46619 (Upjohn & Co., Kalamazoo, U.S.A.), which is a stable analog of the prostaglandin endoperoxide […], is used. U 46619 was characterized as a selective thromboxane mimetic (Coleman et al., Brit. J. Pharmacol. 68, 127 P., 1980).
The aggregation test is carried out in a 4-channel aggregometer (Profiler® of the Bio/Data Co., U.S.A.). The course of the aggregation is followed over a period of 5 minutes. At the end of the test, the degree of aggregation attained is printed out. These values, which are obtained in the presence of different concentrations of the substance to be tested, are used for the determination of the EC50 for the TX antagonistic effect. The effectiveness varies inversely with the EC50 value.

[2] = system: U 46619-induced pulmonary embolism; assay: Preventing the U 46619-induced pulmonary embolism (survival rate of mouse); format: in vivo, mouse (male NMRI); conditions: lethal U 46619 (800-1000 μg/kg) into tail vein after 4 hours, survivors/animals used; for Survival Rate of Mouse 1 mg/kg, 4 h: 1 mg/kg by stomach tube in 1% methylcellulose; for Survival Rate of Mouse 25 mg/kg, 4 h: 25 mg/kg by stomach tube in 1% methylcellulose
Method: 2. Preventing the U 46619-Induced Pulmonary Embolism
Male NMRI mice, with a body weight of 25 g. are used. The test substance is suspended in 1% methylcellulose and administered to the experimental animals with the help of a stomach tube. The provocation test consists of injecting the lethal dose (800-1000 μg/kg) of the thromboxane mimetic (U 46619 of the Upjohn Co.) rapidly into the tail vein. The duration of the specific antagonistic effect is tested by pretreating the animals with 25 mg or 1 mg/kg of the different test substances and injecting U 46619 after 4 hours. The survival rate indicates how many of the animals used have survived the injection of the thromboxane mimetic.

Structure (SMILES) | IC50 [1] | Survival Rate of Mouse 1 mg/kg, 4 h [2] | Survival Rate of Mouse 25 mg/kg, 4 h [2]
O=C(O)c1cc2cc(CCNS(=O)(=O)c3ccc(Cl)cc3)ccc2o1 [Example 11, 5-[2-(4-Chlorobenzenesulphonamido)-ethyl]-benzo[b]-furan-2-carboxylic acid] | 0.75 µM | 4/5 | 10/10
O=C(O)c1cc2cc(CCNS(=O)(=O)c3ccc(Br)cc3)ccc2o1 [12 e] | 2.7 µM | – | 5/5
Cc1ccc(S(=O)(=O)NCCc2ccc3oc(C(=O)O)cc3c2)cc1 [12 b] | 1.6 µM | – | 4/5
O=C(O)COc1ccc(CCNS(=O)(=O)c2ccccc2)cc1 [Comparison Compound, 4-[2-(benzenesulfonylamino)-ethyl]-7-phenoxyacetic acid, reference compound] | 1.85 µM | – | 2/2
Cc1c(C(=O)O)oc2ccc(CCNS(=O)(=O)c3ccc(Cl)cc3)cc12 [12 g] | 1.7 µM | – | 5/5
O=C(O)C1Cc2cc(CCNS(=O)(=O)c3ccccc3)ccc2O1 (stereo not drawn) [Example 13, 5-(2-Benzenesulphonamidoethyl)-2,3-dihydrobenzo[b]furan-2-carboxylic acid] | 1.2 µM | – | 5/5
O=C(O)c1cc2cc(CCNS(=O)(=O)c3ccc(Cl)cc3)ccc2[nH]1 [12 l] | 1.4 µM | 2/5 | –
